Columns and labels:
Assay type in all cases: tissue-based
[1] = target: Adrenergic receptor alpha-2 (Rattus norvegicus) (UniProt P22086+P19328+P22909); test: Selectivity ratio of Alpha-2 adrenergic receptor by Alpha-1 adrenergic receptor in rat cerebral cortex
[2] = target: T1, 5-hydroxytryptamine receptor 1A (Rattus norvegicus, UniProt P19327); test: Binding affinity towards 5-hydroxytryptamine 1A receptor in rat cerebral cortex using [3H]-8-OH-DPAT
T1 sequence (P19327 whole entry): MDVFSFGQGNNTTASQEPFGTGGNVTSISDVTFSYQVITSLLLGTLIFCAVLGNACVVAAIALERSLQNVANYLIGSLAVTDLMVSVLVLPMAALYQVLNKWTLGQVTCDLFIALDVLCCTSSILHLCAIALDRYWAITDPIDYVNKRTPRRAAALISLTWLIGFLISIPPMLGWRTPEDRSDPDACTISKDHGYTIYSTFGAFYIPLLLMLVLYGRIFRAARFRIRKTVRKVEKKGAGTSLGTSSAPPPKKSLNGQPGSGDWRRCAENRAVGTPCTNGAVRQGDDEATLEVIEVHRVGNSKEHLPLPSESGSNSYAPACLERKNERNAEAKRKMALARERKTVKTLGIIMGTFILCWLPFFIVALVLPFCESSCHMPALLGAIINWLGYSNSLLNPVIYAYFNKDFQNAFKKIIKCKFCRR

[3] = target: T2, Adrenergic receptor alpha-1 (Rattus norvegicus, UniProt P15823+P23944+P43140); test: Binding affinity towards Alpha-1 adrenergic receptor in rat cerebral cortex using [3H]prazosin
T2 sequence (P15823 whole entry): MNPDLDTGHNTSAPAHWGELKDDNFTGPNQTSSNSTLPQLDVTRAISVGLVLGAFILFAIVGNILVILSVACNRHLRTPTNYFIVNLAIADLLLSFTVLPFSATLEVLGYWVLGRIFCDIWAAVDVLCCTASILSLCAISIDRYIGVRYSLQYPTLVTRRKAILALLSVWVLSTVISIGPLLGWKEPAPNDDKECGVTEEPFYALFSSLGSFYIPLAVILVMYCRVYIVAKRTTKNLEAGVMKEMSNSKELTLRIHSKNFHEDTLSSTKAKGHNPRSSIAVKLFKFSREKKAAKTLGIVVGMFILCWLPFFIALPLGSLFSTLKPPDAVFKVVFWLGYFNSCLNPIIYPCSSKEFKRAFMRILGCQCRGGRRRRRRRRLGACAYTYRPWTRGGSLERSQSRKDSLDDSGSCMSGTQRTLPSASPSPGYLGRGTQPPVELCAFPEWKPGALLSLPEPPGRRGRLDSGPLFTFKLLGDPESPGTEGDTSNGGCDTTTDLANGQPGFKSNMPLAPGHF
T2 sequence (P23944 whole entry): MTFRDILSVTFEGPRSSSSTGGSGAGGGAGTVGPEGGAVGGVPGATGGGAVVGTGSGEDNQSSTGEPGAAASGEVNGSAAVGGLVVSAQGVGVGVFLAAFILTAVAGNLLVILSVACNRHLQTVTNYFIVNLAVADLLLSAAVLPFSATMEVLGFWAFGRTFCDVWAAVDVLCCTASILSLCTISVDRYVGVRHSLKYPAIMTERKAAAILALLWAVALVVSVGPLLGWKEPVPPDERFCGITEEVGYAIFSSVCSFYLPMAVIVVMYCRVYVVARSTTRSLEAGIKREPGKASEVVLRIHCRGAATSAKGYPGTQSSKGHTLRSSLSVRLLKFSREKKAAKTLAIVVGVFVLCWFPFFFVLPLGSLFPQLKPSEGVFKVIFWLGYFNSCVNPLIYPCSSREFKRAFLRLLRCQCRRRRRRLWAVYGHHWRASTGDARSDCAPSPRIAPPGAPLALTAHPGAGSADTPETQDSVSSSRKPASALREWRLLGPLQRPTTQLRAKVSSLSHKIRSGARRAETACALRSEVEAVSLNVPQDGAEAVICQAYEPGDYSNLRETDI
T2 sequence (P43140 whole entry): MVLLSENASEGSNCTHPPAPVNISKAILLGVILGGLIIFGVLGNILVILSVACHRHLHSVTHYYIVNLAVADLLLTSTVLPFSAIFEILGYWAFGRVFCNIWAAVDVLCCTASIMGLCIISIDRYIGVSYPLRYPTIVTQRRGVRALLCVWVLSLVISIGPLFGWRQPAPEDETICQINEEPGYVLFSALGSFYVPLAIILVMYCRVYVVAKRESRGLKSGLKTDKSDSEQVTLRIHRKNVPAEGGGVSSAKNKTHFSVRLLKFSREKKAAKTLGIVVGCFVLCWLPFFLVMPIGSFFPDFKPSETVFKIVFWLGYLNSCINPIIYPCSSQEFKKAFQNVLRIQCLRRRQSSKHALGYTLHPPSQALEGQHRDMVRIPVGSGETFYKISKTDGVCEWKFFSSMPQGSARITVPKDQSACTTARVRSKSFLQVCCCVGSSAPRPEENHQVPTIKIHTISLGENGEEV

[4] = target: T3, Adrenergic receptor alpha-2 (Rattus norvegicus, UniProt P22086+P19328+P22909); test: Binding affinity towards Alpha-2 adrenergic receptor in rat cerebral cortex using [3H]rauwolscine
T3 sequence (P22086 whole entry): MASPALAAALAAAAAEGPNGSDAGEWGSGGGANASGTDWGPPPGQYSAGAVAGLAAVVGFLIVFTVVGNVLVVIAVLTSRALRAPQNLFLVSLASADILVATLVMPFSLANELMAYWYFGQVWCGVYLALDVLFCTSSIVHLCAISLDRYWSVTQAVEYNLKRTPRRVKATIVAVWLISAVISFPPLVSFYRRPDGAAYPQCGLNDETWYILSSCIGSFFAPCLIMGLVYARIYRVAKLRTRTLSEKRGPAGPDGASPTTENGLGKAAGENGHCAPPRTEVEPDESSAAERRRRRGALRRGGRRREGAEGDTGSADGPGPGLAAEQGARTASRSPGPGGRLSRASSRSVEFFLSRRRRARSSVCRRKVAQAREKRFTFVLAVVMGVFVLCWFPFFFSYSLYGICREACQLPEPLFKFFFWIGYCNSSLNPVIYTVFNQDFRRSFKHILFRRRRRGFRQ
T3 sequence (P19328 whole entry): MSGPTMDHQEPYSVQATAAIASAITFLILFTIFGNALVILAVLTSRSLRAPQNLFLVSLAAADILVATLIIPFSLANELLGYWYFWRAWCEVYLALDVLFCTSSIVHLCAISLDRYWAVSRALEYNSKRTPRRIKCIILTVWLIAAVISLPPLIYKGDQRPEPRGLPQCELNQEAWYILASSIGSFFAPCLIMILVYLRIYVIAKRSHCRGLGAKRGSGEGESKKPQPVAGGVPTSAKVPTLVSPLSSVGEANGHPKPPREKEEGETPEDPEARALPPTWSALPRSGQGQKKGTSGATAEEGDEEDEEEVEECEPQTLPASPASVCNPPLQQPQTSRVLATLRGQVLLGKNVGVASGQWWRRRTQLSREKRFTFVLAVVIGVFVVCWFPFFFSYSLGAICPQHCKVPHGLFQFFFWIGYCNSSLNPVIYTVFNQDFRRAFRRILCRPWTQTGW
T3 sequence (P22909 whole entry): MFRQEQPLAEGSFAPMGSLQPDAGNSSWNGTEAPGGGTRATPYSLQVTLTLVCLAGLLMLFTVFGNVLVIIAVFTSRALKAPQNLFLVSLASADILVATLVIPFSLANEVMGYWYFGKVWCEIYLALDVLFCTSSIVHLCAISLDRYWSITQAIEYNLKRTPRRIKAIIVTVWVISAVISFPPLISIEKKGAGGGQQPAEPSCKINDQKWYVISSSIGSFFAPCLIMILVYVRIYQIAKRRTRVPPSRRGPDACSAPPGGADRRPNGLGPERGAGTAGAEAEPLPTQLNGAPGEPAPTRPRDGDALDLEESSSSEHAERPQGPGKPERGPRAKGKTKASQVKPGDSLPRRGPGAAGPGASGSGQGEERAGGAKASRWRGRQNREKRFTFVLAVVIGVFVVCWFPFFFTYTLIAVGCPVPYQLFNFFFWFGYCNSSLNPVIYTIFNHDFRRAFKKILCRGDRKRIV

[5] = target: T1, 5-hydroxytryptamine receptor 1A; test: Binding affinity towards 5-hydroxytryptamine 1A receptor in rat cerebral cortex

| SMILES | Selectivity ratio [1] | Ki [2] | Ki [3] | Ki [4] | Ki [5] |
| --- | --- | --- | --- | --- | --- |
| CC(C)Oc1ccccc1N1CCN(CCCCCCCn2ncc(N3CCN(C(=O)c4ccco4)CC3)c(Cl)c2=O)CC1 | 11 | 0.8 nM | 0.052 nM | 0.56 nM | – |
| CCOc1ccccc1N1CCN(CCCCCCCn2ncc(N3CCN(C(=O)c4ccco4)CC3)c(Cl)c2=O)CC1 | 8 | – | 0.5 nM | 4 nM | – |
| COc1ccccc1N1CCN(CCCCCCCn2ncc(N3CCN(C(=O)c4ccco4)CC3)c(Cl)c2=O)CC1 | 274 | – | – | – | – |
| COc1ccccc1OCCN1CCN(c2cnn(CCCCCCCN3CCN(c4ccccc4OC)CC3)c(=O)c2Cl)CC1 | 3 | – | – | – | – |

Further lines, results first:

| Selectivity ratio [1] | Ki [2] | Ki [3] | Ki [4] | Ki [5] | SMILES |
| --- | --- | --- | --- | --- | --- |
| 14 | – | 0.58 nM | 8.2 nM | – | CCOc1ccccc1N1CCN(CCCCCCCn2ncc(N3CCN(CCOc4ccccc4OC)CC3)c(Cl)c2=O)CC1 |
| 3 | 0.16 nM | 0.55 nM | 1.6 nM | – | CCOc1ccccc1OCCN1CCN(c2cnn(CCCCCCCN3CCN(c4ccccc4OC)CC3)c(=O)c2Cl)CC1 |
| 5 | 0.22 nM | 0.43 nM | 2 nM | – | CCOc1ccccc1OCCN1CCN(c2cnn(CCCCCCCN3CCN(c4ccccc4OCC)CC3)c(=O)c2Cl)CC1 |
| 12 | – | 0.26 nM | 3.2 nM | 0.82 nM | CCOc1ccccc1OCCN1CCN(c2cnn(CCCCCCCN3CCN(c4ccccc4OC(C)C)CC3)c(=O)c2Cl)CC1 |
